Read-outs that look alike come from different tables or passages of the source.
Key:
[1] = tested on: Cultures of Dissociated Neonatal Rat Cerebellum; assay: Reversal of NMDA Induced Cell Death in cultures of dissociated neonatal rat cerebellum; assay type: cell-based; details: for PERCENT PROTECTION: cell survival minus the NMDA effect (30%); for viability at 0.005 µM: 0.005 μM + NMDA (1 mM, 3 hours)
Experimental: (§1) The cerebellum was aseptically dissociated from 6 or 7-day old rat pups and placed in a 15 ml sterile plastic conical tube containing 3 ml of Dulbecco's modified Eagle's medium (DMEM) with a high glucose concentration ([…]) and 2 mM (v/v) L-glutamine and an antibiotic antimitotic mixture. The cerebella were then dissociated after 20-25 passages through a sterile 13 gauge, 10 cm long stainless steel needle attached to a 5 ml syringe with an inserted 45 micrometer pore nylon sieve. The dissociated cells were centrifuged at 200 g for 5 minutes.
Cells were plated at a density of 200/mm^2 on poly-L-lysine coated surfaces. […] The plated cells were covered with enriched medium and incubated at 37° C. in an atmosphere of 5% CO2 in air and 97% humidity. […] Each test compound was tested in duplicate. Toxic-dose response was determined for each compound over a range from 0.005-1000 micromole. Four groups were run in each set of experiments;
I. Control, consisting of enriched media alone,
II. N-methyl-D-aspartate (NMDA, 1 mM for 3 hours) as the cytotoxic challenge,
III. Test compound plus NMDA, and
IV. Positive control, spermine, spermidine or putrescine (0.01 micromoles) plus NMDA.
Surviving cells in Culture are measured relative to control (100%) as described above. Percent protection is the Cell Survival for the test compound minus the NMDA effect. […] The Effective Protection was calculated as the percent of the Percent Protection (X) divided by the maximal protection value (e.g. X×100/70).

in vitro = details: rat, cerebellum cell culture
Experimental: as §1, with “minutes. […] Cell viability was determined by the tryptan blue exclusion test.” for “minutes.”
Cells were plated at a density of 200/mm^2 on poly-L-lysine coated surfaces. Poly-L-lysine coated glass coverslips were prepared at least one hour in advance of plating by immersing sterile coverslips in sterile distilled water solution containing 15 microgram/ml poly-L-lysine, and washing in sterile water just prior. to use. […] After three days in culture, the media was replaced with media containing the desired test compound. Each test compound was tested in duplicate. Toxic-dose response was determined for each compound over a range from 0.005-1000 micromole. Four groups were run in each set of experiments;
Nerve cell survival was evaluated by phase contrast microscopy and tryptan blue staining after 24 hours.
Toxic dose-response curves were compiled using the protocol described above.

[2] = tested on: pyramidal neurons throughout the CA1 layer of the anterior hippocampus; assay: Global Brain Ischemia In Gerbils; assay type: in vivo, mongolian gerbils; details: Meriones unguiculatus, Pyramidal neuron, 336 h, read-out: PERCENT PROTECTION; for responders at 10 mg/kg: 10.0 mg/kg ip
Experimental: Male mongolian gerbils, aged 2.5-5 months, housed 4-8 in a cage, were supplied freely with food and water and maintained at 24° C. with a 12 hour day/night cycle.
For surgery the animals were anesthetized with halothane (1.5% in 100% O2) and the common carotid arteries exposed bilaterally through a midline ventral neck incision. Each artery was clamped for 5 minutes with aneurysm clips to produce global brain ischemia. The anesthesia was discontinued upon clamping. After 5 minutes the clamps were removed and the wound closed with skin clips.
For treatment, the test compound or vehicle was injected intra-peritoneally(ip) in a volume of 50 microlitres of solvent per 10 g body weight. The first injection was given two minutes after clamp removal, and thereafter daily for the next 2 post-operative days (total of 3 injections).
Seven groups each of 4-8 animals were compared:
I. Control; (sham- or unoperated and saline treated),
II. Vehicle treated, unoperated (when solvent is other than saline),
III. Ischemia--untreated or saline treated),
IV. Ischemia--vehicle treated (when solvent is other than saline),
V. Ischemia--Test compound treated, one sub-group per concentration tested,
VI. Ischemia and pentobarbital (40 mg/kg) as positive control).
Analysis of neuronal damage was performed 14 days post-ischemia by counting pyramidal neurons throughout the CA1 layer of the anterior hippocampus in […] thick (paraffin) coronal brain sections stained with hematoxylin and erosin.
Percent Protection values represent the fraction of hippocampi protected from ischemia in a group of animals treated with the stated dose of compound.

[3] = tested on: ischemia induced nerve cell death; details: gerbils; Gilad G et al.; cited from earlier work
[4] = Rattus norvegicus, 24 hours, read-out: SURVIVING CELL IN CULTURE (relative to control, 100%)
[5] = Rattus norvegicus, 0.010 μM + NMDA (1 mM, 3 hours), 24 hours, read-out: SURVIVING CELL IN CULTURE (relative to control, 100%)
[6] = ip, 1.0 mg/kg ip, 3 daily injections, 14 days post-ischemia, fraction of hippocampi protected
[7] = ip, 3 daily injections, 14 days post-ischemia, fraction of hippocampi protected
[8] = positive control, 0.01 micromoles + NMDA

**Q.** With `NCCCCN(CCCN)C1CCc2ccccc21` (stereo not drawn) [Compound 2722, N-(4-amino-n-butyl)-N-(3-amino-n-propyl)-1-aminoindan] as the compound, how does the “PERCENT PROTECTION” value ([1]; 0.005 μM + NMDA) read?
**A.** 85%

**Q.** What about the “PERCENT PROTECTION” value ([1]; 0.010 μM + NMDA) of the same compound?
**A.** 57%

**Q.** What about the viability at 0.005 µM [1, 4] of the same compound?
**A.** 115%

**Q.** What about the viability at 0.01 µM [1, 5] of the same compound?
**A.** 87%

**Q.** And the CC50 at 24 h (in vitro)?
**A.** 20 µM

**Q.** What about the responders at 1 mg/kg [2, 6] of the same compound?
**A.** 50%

**Q.** And the responders at 10 mg/kg [2, 7]?
**A.** 25%

**Q.** With `NCCCNCCCCNC1CCc2ccccc21` (stereo not drawn) [Compound 2724] as the compound, how does the “PERCENT PROTECTION” value ([1]; 0.005 μM + NMDA) read?
**A.** 65%

**Q.** What about the “PERCENT PROTECTION” value ([1]; 0.010 μM + NMDA) of the same compound?
**A.** 57%

**Q.** And the viability at 0.005 µM [1, 4]?
**A.** 95%

**Q.** What about the viability at 0.01 µM [1, 5] of the same compound?
**A.** 87%

**Q.** And the CC50 at 24 h (in vitro)?
**A.** 4 µM

**Q.** What about the responders at 1 mg/kg [2, 6] of the same compound?
**A.** 12%

**Q.** And the responders at 10 mg/kg [2, 7]?
**A.** 56%

**Q.** Which “PERCENT PROTECTION” value ([1]; 0.005 μM + NMDA) does the source give for `NCCCCNCCCNCCCCNC1CCc2ccccc21` (stereo not drawn) [Compound 2725] here?
**A.** 42%

**Q.** What about the “PERCENT PROTECTION” value ([1]; 0.010 μM + NMDA) of the same compound?
**A.** 8%

**Q.** What about the “PERCENT PROTECTION” value ([1]; 0.100 μM + NMDA) of the same compound?
**A.** 2%

**Q.** And the viability at 0.005 µM [1, 4]?
**A.** 72%

**Q.** And the viability at 0.01 µM [1, 5]?
**A.** 38%

**Q.** What about the viability at 0.1 µM ([1]; Rattus norvegicus, 0.100 μM + NMDA (1 mM, 3 hours), 24 hours, read-out: SURVIVING CELL IN CULTURE (relative to control, 100%)) of the same compound?
**A.** 32%

**Q.** And the CC50 at 24 h (in vitro)?
**A.** 20 µM

**Q.** And the responders at 1 mg/kg [2, 6]?
**A.** 0%

**Q.** And the responders at 10 mg/kg [2, 7]?
**A.** 25%

**Q.** Which “PERCENT PROTECTION” value ([1]; 0.005 μM + NMDA) does the source give for `NCCCCN(CCCCN)[C@@H]1CCc2ccccc21` [Compound 2726, (R)-N,N-di(4-amino-n-butyl)-1-aminoindan] here?
**A.** 99%

**Q.** And the “PERCENT PROTECTION” value ([1]; 0.010 μM + NMDA)?
**A.** 25%

**Q.** And the viability at 0.005 µM [1, 4]?
**A.** 129%

**Q.** What about the viability at 0.01 µM [1, 5] of the same compound?
**A.** 55%

**Q.** What about the CC50 at 24 h (in vitro) of the same compound?
**A.** 1.7 µM

**Q.** And the responders at 10 mg/kg [2, 7]?
**A.** 50%

**Q.** For `NCCCCN(CCCCN)[C@H]1CCc2ccccc21` [Compound 2727, (S)-N,N-di(4-amino-n-butyl)-1-aminoindan], which “PERCENT PROTECTION” value ([1]; 0.005 μM + NMDA) is on record?
**A.** 0%

**Q.** What about the “PERCENT PROTECTION” value ([1]; 0.010 μM + NMDA) of the same compound?
**A.** 25%

**Q.** What about the viability at 0.005 µM [1, 4] of the same compound?
**A.** 30%

**Q.** And the viability at 0.01 µM [1, 5]?
**A.** 55%

**Q.** What about the CC50 at 24 h (in vitro) of the same compound?
**A.** 0.4 µM

**Q.** And the responders at 10 mg/kg [2, 7]?
**A.** 28.5%

**Q.** Which “PERCENT PROTECTION” value ([1]; 0.005 μM + NMDA) does the source give for `NCCCCN(CCCCN)C1CCCc2ccccc21` (stereo not drawn) [Compound 2728, N,N-di(4-amino-n-butyl)-1-amino-1,2,3,4-tetrahydronaphthalene] here?
**A.** -10%

**Q.** And the “PERCENT PROTECTION” value ([1]; 0.010 μM + NMDA)?
**A.** 56%

**Q.** And the viability at 0.005 µM [1, 4]?
**A.** 20%

**Q.** What about the viability at 0.01 µM [1, 5] of the same compound?
**A.** 86%

**Q.** And the CC50 at 24 h (in vitro)?
**A.** 0.25 µM

**Q.** And the responders at 1 mg/kg ([2]; ip)?
**A.** 20%

**Q.** Which responders at 40 mg/kg ([2]; ip) does the source give for `CCCC(C)C1(CC)C(=O)NC(=O)NC1=O` (stereo not drawn) [Pentobarbital, pentobarbital, reference compound] here?
**A.** 87.5%

**Q.** With `NCCCCN` [Putrescine, putrescine, reference compound] as the compound, how does the “PERCENT PROTECTION” value [1, 8] read?
**A.** 0%

**Q.** What about the CC50 at 24 h (in vitro) of the same compound?
**A.** 300 µM

**Q.** And the responders at 10 mg/kg ([2]; 3 daily injections, 14 days post-ischemia, fraction of hippocampi protected)?
**A.** 41%

**Q.** What about the “protecting against ischemia induced nerve cell death” value [3] of the same compound?
**A.** activity

**Q.** With `NCCCCNCCCN` [Spermidine, spermidine, reference compound] as the compound, how does the viability at 0.01 µM ([1]; Rattus norvegicus, positive control, 0.01 micromoles + NMDA (1 mM, 3 hours), 24 hours, read-out: SURVIVING CELL IN CULTURE (relative to control, 100%)) read?
**A.** 78%

**Q.** What about the “PERCENT PROTECTION” value [1, 8] of the same compound?
**A.** 48%

**Q.** And the CC50 at 24 h (in vitro)?
**A.** 2 µM

**Q.** What about the responders at 10 mg/kg [2, 7] of the same compound?
**A.** 42%

**Q.** And the “protecting against ischemia induced nerve cell death” value [3]?
**A.** activity
